Read-outs that look alike come from different tables or passages of the source.
Experiments:
mouse dorsal skin = format: in vivo; settings: for Effect on hypodermal thickness: GDX animals of both sexes, p<0.01; for Dermis % (proportion of skin layer) / Epidermis % (proportion of skin layer) / Hypodermis % (proportion of skin layer) / Dermis T (thickness) / Epidermis T (thickness) / Hypodermis T (thickness): 3 weeks treatment; for Dermis T (thickness) / Epidermis T (thickness) / Hypodermis T (thickness): mean ± SEM
Method: (§1) Fifty six adult male and female C57BL6 mice 13-15 weeks of age were obtained from Harlan Laboratory (Indiana, USA). […] Animals of intact and GDX control groups were treated with the vehicle alone during the same period. Six hours after the last treatment, all animals were sacrificed.
Since DHT is known to be poorly active by the oral route, it was injected subcutaneously. To determine the DHT dose, a preliminary dose-range study was performed (see supplementary online material, online Table S1).
After shaving the long hair, the dorsal skin was excised, flattened and immediately immersed in 10% buffered formalin. A sample was embedded in paraffin blocks from which 4 μm sections were cut and routinely stained.
Under the light microscope, measurements were performed using the IMAGE-PRO PLUS (Media Cybernetics, USA). Twenty-five readings were scored from each skin layer of each animal. The epidermal thickness was measured from stratum basale to stratum granulosum (excluding stratum corneum), whereas the dermal thickness was the distance between the epidermis and the hypodermis. Finally, the hypodermal thickness was measured as the distance between the dermis and the panniculus carnosus.

androgen receptor (AR) = assay: Immunohistochemistry of androgen receptor in epidermis of mouse dorsal skin; format: in vivo; settings: GDX males and females, 3 weeks treatment
Method: as §1

[1] = men and women 60-79 years, oral 50 mg once daily, cited from earlier work
[2] = aged individuals, particularly women >70 years; cited from earlier work
[3] = GDX females, versus GDX control

Row | SMILES | Effect on hypodermal thickness (mouse dorsal skin) | Dermis % (proportion of skin layer) (mouse dorsal skin; GDX female mice) [%] | Epidermis % (proportion of skin layer) (mouse dorsal skin; GDX female mice) [%] | Hypodermis % (proportion of skin layer) (mouse dorsal skin; GDX female mice) [%] | Dermis T (thickness) (mouse dorsal skin; GDX female mice) | Epidermis T (thickness) (mouse dorsal skin; GDX female mice) | Hypodermis T (thickness) (mouse dorsal skin; GDX female mice) | Effect on dermal thickness (in words) (mouse dorsal skin; GDX females) | Increase in dermal thickness (mouse dorsal skin; [3]) [%] | Dermis % (proportion of skin layer) (mouse dorsal skin; GDX male mice) [%] | Epidermis % (proportion of skin layer) (mouse dorsal skin; GDX male mice) [%] | Hypodermis % (proportion of skin layer) (mouse dorsal skin; GDX male mice) [%] | Dermis T (thickness) (mouse dorsal skin; GDX male mice) [μm] | Epidermis T (thickness) (mouse dorsal skin; GDX male mice) [μm] | Hypodermis T (thickness) (mouse dorsal skin; GDX male mice) [μm] | other results
1 | C[C@]12CC[C@@H]3c4ccc(O)cc4CC[C@H]3[C@@H]1CC[C@@H]2O [E2] | markedly decreased | – | – | – | – | – | – | – | – | – | – | – | – | – | – | AR labeling / expression in epidermal nuclei (androgen receptor (AR)): weak AR labeling
2 | C[C@]12CC[C@H](O)CC1=CC[C@@H]1[C@@H]2CC[C@]2(C)C(=O)CC[C@@H]12 [DHEA, dehydroepiandrosterone] | markedly decreased | 75.8 | 3.2 | 21 | 249 ± 11.8^+ μm | 10.5 ± 0.3^+ μm | 69 ± 4.5^++ μm | increase | 19 | 92.8 | 1.7 | 5.5 | 486 ± 28.7 | 8.9 ± 0.3 | 29 ± 6.2 | Facial skin pigmentation (yellowness) ([1]; 1 year): significantly decreased; Other components of skin colour (lightness and redness) ([1]; 1 year): remained stable; Skin surface hydratation ([1]; after 12 months): significantly increased; Increase in epidermal thickness (mouse dorsal skin; GDX females, versus GDX control, p<0.05): 13%; Sebum production [2]: increase
3 | C[C@]12CCC(=O)C[C@@H]1CC[C@@H]1[C@@H]2CC[C@]2(C)[C@@H](O)CC[C@@H]12 [DHT, 5α-androstane-17β-ol-3-one] | markedly decreased | 79.5 | 2.5 | 18 | 307 ± 13.3^++ μm | 9.6 ± 0.2 μm | 70 ± 4.6^++ μm | increase | 47 | 93 | 2.1 | 4.9 | 451 ± 24.1 | 10 ± 0.2 | 24 ± 1.9 | –

— US20060178352A1, “Use of androgens to reduce the likelihood of acquiring or to treat skin aging” (Endorecherche, Inc., priority 2004, published 2006)
